{"source": "patent US11440887B2", "about": "“Substituted 1,2,3,4-tetrahydroquinolines as inhibitors of repair enzyme 8-oxoguanine deoxyribonucleic acid glycosylase activity” (The Board of Trustees of the Leland Stanford Junior …, priority 2017, dated 2022)", "key": {"ABH2": {"target": "ABH2 (Homo sapiens (Human), UniProt Q6NS38)", "sequence (Q6NS38 whole entry, species assumed)": "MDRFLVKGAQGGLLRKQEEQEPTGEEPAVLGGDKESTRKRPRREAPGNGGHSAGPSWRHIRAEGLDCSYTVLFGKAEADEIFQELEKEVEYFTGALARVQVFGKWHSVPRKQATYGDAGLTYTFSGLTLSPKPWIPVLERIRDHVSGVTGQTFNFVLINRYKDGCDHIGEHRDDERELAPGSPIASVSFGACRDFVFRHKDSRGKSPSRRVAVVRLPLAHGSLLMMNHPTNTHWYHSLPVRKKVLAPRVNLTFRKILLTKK", "assay": "ABH2 assay", "assay_type": "biochemical", "details": "20 μM inhibitor", "experimental": "(§1) Enzyme (0.5 μM) was pre-incubated for 5 minutes with 20 μM inhibitor or vehicle or at 37° C. in 50 mM HEPES buffer (pH 8.0) containing 75 μM Fe(NH4)2(SO4)2, 1 mM α-ketoglutarate, 2 mM Sodium ascorbate, 50 μg/ml BSA and 0.4 mg/ml Catalase. The probe (1 μM) was added and fluorescent signal plotted over 10 minutes to calculate initial rate. Inhibitor rates were normalized against the vehicle control rate."}, "[1]": {"target": "MTH1 (human MutT homolog 1) (Homo sapiens (Human), UniProt P36639)", "assay": "MTH1 assay (ARGO probe, Kinase-Glo)", "assay_type": "biochemical", "details": "20 μM", "experimental": "(30 min). After that, 5 μL of this reaction solution was mixed with 20 μL of Kinase-Glo. Immediately, luminescence was measured on a Thermo Fluoroskan Ascent FL fluorescence plate reader. (See, e.g., Ji, D., et al., J. Am. Chem. Soc. 2016, 138, 9005-9008, the disclosure of which is incorporated herein by reference.) The slope of initial rate (6 min) was calculated, and % of control was used for inhibition activity. MTH1 was purchased from Abcam, PNK buffer was purchased from New England Biolabs, and Kinase-Glo was purchased from Promega."}, "hABH3": {"target": "hABH3 (Homo sapiens (Human), UniProt Q96Q83)", "sequence (Q96Q83 whole entry)": "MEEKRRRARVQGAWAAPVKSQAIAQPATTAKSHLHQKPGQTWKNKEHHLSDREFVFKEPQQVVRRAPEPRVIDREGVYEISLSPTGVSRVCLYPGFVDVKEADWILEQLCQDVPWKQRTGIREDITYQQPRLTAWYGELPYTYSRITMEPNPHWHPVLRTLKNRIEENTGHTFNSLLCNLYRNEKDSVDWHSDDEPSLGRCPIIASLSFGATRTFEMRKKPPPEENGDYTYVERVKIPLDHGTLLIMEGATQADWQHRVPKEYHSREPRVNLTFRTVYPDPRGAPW", "assay": "ABH3 assay (MAQ probe)", "assay_type": "biochemical", "details": "20 μM inhibitor", "experimental": "as §1, with “Fe(NH4)2(SO4)2, (See, e.g., Beharry, A. A., et al., J. Am. Chem. Soc. 2016, 138, 3647-3650, the disclosure of which is incorporated herein by reference.)” for “Fe(NH4)2(SO4)2,”, “The MAQ” for “The”, “control rate.3” for “control rate.”"}, "HEK293T cells": {"tested_on": "HEK293T cells", "assay": "MTT assay, HEK293T", "assay_type": "cell-based, human", "details": "24 h", "experimental": "(§2) Methods: HEK293T cells (concentration of 1.6×10^4 cells per well) and HeLa cells (concentration of 1.2×10^4 cells per well) were seeded to 96-well plate in supplemented DMEM culture medium (10% FBS, 100 U Pen./Strep.) and incubated for 30 h (HEK293T cells) and 16 h (HeLa cells) at +37° C. and 5% CO2. […] After the incubation period, 10 μL of the MTT labeling reagent (final concentration 0.5 mg/ml) was added to each well, and incubated at +37° C. and 5%. 100 μl of the solubilization solution was added into each well, and incubated for 20 h at +37° C. and 5%. Absorbance of the samples was measured by using a microplate reader Tecan Infinite M1000 at 550, and 650 nm. […] In the rest of the samples (10 μM, 1 μM, 100 nM, and 10 nM) concentration of DMSO was at the level of 1%. The controls were prepared: Ctrl—cells cultured only in the supplemented DMEM; Ctrl 5% DMSO—cells cultured in 5% DMSO in the supplemented DMEM; Ctrl 1% DMSO—cells cultured in 1% DMSO in the supplemented DMEM."}, "OGG1 [2]": {"target": "T1, OGG1 (Homo sapiens (Human), UniProt O15527)", "T1 sequence (O15527 whole entry)": "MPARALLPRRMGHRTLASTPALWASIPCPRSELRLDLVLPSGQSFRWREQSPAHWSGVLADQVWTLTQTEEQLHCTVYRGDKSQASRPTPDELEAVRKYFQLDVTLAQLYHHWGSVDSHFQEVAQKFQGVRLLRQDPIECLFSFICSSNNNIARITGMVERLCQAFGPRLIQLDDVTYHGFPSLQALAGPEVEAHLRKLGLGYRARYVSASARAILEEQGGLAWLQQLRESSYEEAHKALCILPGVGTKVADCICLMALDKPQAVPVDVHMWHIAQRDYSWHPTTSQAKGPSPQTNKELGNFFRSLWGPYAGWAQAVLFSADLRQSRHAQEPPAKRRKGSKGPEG", "assay": "OGG1 inhibitor assay with fluorogenic OGR1 probe (base excision, initial rates)", "assay_type": "biochemical", "experimental": "Methods: Synthesized compounds and hOGG1 (100 nM) were incubated in NEBuffer 4 (1×) with BSA (1×) at 37° C. (15 min) in 100 μL reaction volumes in a black 96-well plate. (See, e.g., Edwards, S. K., et al., ChemBioChem 2015, 16, 1637-1646, the disclosure of which is incorporated herein by reference.) After that, OGR1 (1.2 μM) was added to the reaction mixture. Fluorescence at 460 nm was measured on a Thermo Fluoroskan Ascent FL fluorescence plate reader (λex=355 nm). The slope of initial rate (12 min) was calculated, and % of control was used for inhibition activity. BSA, hOGG1 and NEBuffer 4 were purchased from New England Biolabs and used. UltraPure Distilled Water (Invitrogen) was purchased and used for the assay."}, "OGG1 [3]": {"target": "T1, OGG1", "assay": "Km and Kcat study (Michaelis-Menten / Lineweaver-Burk) of OGG1 with inhibitor", "assay_type": "biochemical", "experimental": "Methods: For Michaelis-Menten curves: Inhibitor 41 and hOGG1 (100 nM) were incubated in NEBuffer 4 (1×) with BSA (1×) at 37° C. (15 min) in 100 μL reaction volumes in a black 96-well plate. After that, OGR1 (0.8-10 μM) was added to the reaction mixture. Fluorescence at 460 nm was measured on a Thermo Fluoroskan Ascent FL fluorescence plate reader (Aex=355 nm). The initial rate (12 min) was calculated. Lineweaver-Burk plot was leaded from the Michaelis-Menten curves. Km and Vmax were calculated from the equation. Kcat was calculated from Kcat=Vmax/[enzyme]."}, "SMUG1": {"target": "SMUG1 (Homo sapiens (Human), UniProt Q53HV7)", "sequence (Q53HV7 whole entry, species assumed)": "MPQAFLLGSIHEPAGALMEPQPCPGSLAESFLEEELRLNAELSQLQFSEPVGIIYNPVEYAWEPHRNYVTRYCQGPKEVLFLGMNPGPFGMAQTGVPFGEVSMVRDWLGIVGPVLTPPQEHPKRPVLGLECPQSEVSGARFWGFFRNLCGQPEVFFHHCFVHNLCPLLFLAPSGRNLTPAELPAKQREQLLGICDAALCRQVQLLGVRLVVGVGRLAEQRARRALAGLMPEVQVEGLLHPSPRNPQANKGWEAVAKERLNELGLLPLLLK", "assay": "SMUG1 assay", "assay_type": "biochemical", "details": "20 μM inhibitor", "experimental": "(See, e.g., Ono, T., et al., Nucleic Acids Res. 2013, 41, e127-e127, the disclosure of which is incorporated herein by reference.) Enzyme (500 U/mL) was pre-incubated for 5 minutes with 20 μM inhibitor or vehicle or at 37° C. in 50 mM Tris (pH 7.4), 1 mM DTT and 0.5 mM EDTA. Probe 2 (1 μM) was added and the fluorescent signal was plotted over 15 minutes to calculate initial rate. Inhibitor rates were normalized against the vehicle control rate."}, "HeLa cells": {"tested_on": "HeLa cells", "assay": "MTT assay, HeLa", "assay_type": "cell-based, human", "details": "24 h", "experimental": "as §2"}, "NUDT16": {"target": "NUDT16 (Homo sapiens (Human), UniProt Q96DE0)", "sequence (Q96DE0 whole entry, species assumed)": "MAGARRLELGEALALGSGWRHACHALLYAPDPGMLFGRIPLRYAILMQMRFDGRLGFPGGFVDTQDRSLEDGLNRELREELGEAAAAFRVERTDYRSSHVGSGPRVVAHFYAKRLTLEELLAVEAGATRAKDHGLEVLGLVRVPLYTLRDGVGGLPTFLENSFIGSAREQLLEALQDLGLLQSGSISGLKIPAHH", "assay": "NUDT16 assay", "assay_type": "biochemical", "details": "20 μM", "experimental": "After 1 h incubation at 37° C., 5 μL of this reaction solution was added to 20 μL Kinase-Glo Luminescent Kinase Assay reaction solution (prepared as instructed for the ATP determination kit) in a 96 well plate. The bioluminescence signal was recorded at 1 min intervals over 10 min."}}}
{"smiles": "NC(=O)c1cccc(-c2ccc(S(=O)(=O)Nc3ccc4c(c3)N(C(=O)C3CC3)CCC4)cc2)c1", "note": "[Compound 41]", "values": [{"measurement": "ABH2 enzyme activity in the presence of the inhibitor", "setting": "ABH2", "value": "> 90", "unit": "%"}, {"measurement": "MTH1 enzyme activity in the presence of the inhibitor", "setting": "[1]", "value": "> 80", "unit": "%"}, {"measurement": "ABH3 enzyme activity in the presence of the inhibitor", "setting": "hABH3", "value": "~100", "unit": "%"}, {"measurement": "cytotoxicity by MTT assay", "setting": "HEK293T cells; 10 nM to 10 μM", "value": "little or no cytotoxicity"}, {"measurement": "toxicity by MTT assay", "setting": "HEK293T cells; 100 μM", "value": "30-50%"}, {"measurement": "Enzyme activity, % of control at 200 nM", "setting": "OGG1 [2]; 200 nM compound, ratio of initial rate slope (first 12 min) to no-compound control", "value": "39 ± 2.5 % of control"}, {"measurement": "Enzyme activity, % of control at 2 μM", "setting": "OGG1 [2]; 2 μM compound, ratio of initial rate slope (first 12 min) to no-compound control", "value": "4.8 % of control"}, {"measurement": "IC50", "setting": "OGG1 [2]; initial rates method", "value": 59, "unit": "nM"}, {"measurement": "Kcat", "setting": "OGG1 [3]; OGG1 with 200 nM 41", "value": 0.057, "unit": "s⁻¹"}, {"measurement": "Kcat/Km", "setting": "OGG1 [3]; OGG1 with 200 nM 41", "value": 0.0070, "unit": "s^−1μM^−1"}, {"measurement": "Km", "setting": "OGG1 [3]; OGG1 with 200 nM 41", "value": 8.2, "unit": "µM"}, {"measurement": "Kcat", "setting": "OGG1 [3]; OGG1 with 2 μM 41", "value": 0.040, "unit": "s⁻¹"}, {"measurement": "Kcat/Km", "setting": "OGG1 [3]; OGG1 with 2 μM 41", "value": 0.022, "unit": "s^−1μM^−1"}, {"measurement": "Km", "setting": "OGG1 [3]; OGG1 with 2 μM 41", "value": 1.8, "unit": "µM"}, {"measurement": "SMUG1 enzyme activity in the presence of the inhibitor", "setting": "SMUG1", "value": "~100", "unit": "%"}, {"measurement": "cytotoxicity by MTT assay", "setting": "HeLa cells; 10 nM to 10 μM", "value": "little or no cytotoxicity"}, {"measurement": "toxicity by MTT assay", "setting": "HeLa cells; 100 μM", "value": "30-50%"}, {"measurement": "NUDT16 enzyme activity in the presence of the inhibitor", "setting": "NUDT16", "value": "~70", "unit": "%"}]}
